Format in all cases: physicochemical
Data set [1] is described as follows: Particle size distribution (d10, d50, d90) by laser diffraction.
Data set [2] in a line: Solid state by X-ray powder diffraction. Particulars: * indicates absence of crystalline API; monohydrochloride.
A short description of the next data set: Glass transition. As to conditions: monohydrochloride.
The nature of data set [3]: Mechanical deformation behaviour (brittleness). As to conditions: more brittle than lactose. An excerpt:
Mechanical compression during tableting of conventional pharmaceutical compositions comprising ipatasertib leads to exhausted compressibility, followed by elastic recovery of the tablet upon decompression. Therefore conventional pharmaceutical compositions comprising ipatasertib monohydrochloride are not suitable for direct compression due to lamination problems (crack formation during decompression) which are detectable as small cracks and fractures of the tablet core (e.g. using X-ray microtomography). Industrially required high-speed tableting processes may not be achievable.

Data set [4] is described as follows: Solubility of ipatasertib. An excerpt: (§1) Whereas poor solubility is often a limiting factor in the development of galenical formulations of other API's (active pharmaceutical ingredient), a high solubility can equally be problematic for the process performance. Due to this very high intrinsic hygroscopicity of the API, ipatasertib drug substance tends to auto-dissolve to a honey-like viscous liquid at increased humidity. Such high solubility and hygroscopicity may pose serious problems for processing as well as for stability and shelf-life of the final product. Therefore, conventional pharmaceutical compositions comprising ipatasertib and processes for the manufacture of pharmaceutical compositions comprising wetting (e.g. wet granulation) are difficult due to the high solubility and high hygroscopicity of the API.

Data set [5] in a line: Hygroscopicity of ipatasertib.
Text: as §1

Setting [6] is: spray dried amorphous ipatasertib monohydrochloride powder.

The text below walks through data of patent US12440492B2, “Pharmaceutical compositions comprising AKT protein kinase inhibitors” (Genentech, Inc., priority 2016, dated 2025).

SMILES strings stand for the structures. Counter-ions that a name gives are not always drawn.

Turning to `CC(C)NC[C@@H](C(=O)N1CCN(c2ncnc3c2[C@H](C)C[C@H]3O)CC1)c1ccc(Cl)cc1` [Example 6C, ipatasertib monohydrochloride], the “particle size distribution shape” value in data set [1] (laser diffraction, monohydrochloride) was “bimodal”. Moreover, in data set [1] (setting [6]), the “Particle size d10” value was 0.7 μm and the “Particle size d50” value is 4.3 μm. In addition, the “Solid state / Polymorphy (X-Ray, XRPD)” value in data set [2] was “amorphous”. For the same compound, the “Glass Transition tg” value in “Glass transition” amounted to 131 °C.
Consider `CC(C)NC[C@@H](C(=O)N1CCN(c2ncnc3c2[C@H](C)C[C@H]3O)CC1)c1ccc(Cl)cc1` [ipatasertib monohydrochloride, (S)-2-(4-chlorophenyl)-1-(4-((5R,7R)-7-hydroxy-5-methyl-6,7-dihydro-5H-cyclopenta[d]pyrimidin-4-yl)piperazin-1-yl)-3-(isopropylamino)propan-1-one as monohydrochloride salt], for which the “brittle deformation characteristics relative to lactose” value in data set [3] was 3 ×.
In the case of `CC(C)NC[C@@H](C(=O)N1CCN(c2ncnc3c2[C@H](C)C[C@H]3O)CC1)c1ccc(Cl)cc1` [ipatasertib, (S)-2-(4-chlorophenyl)-1-(4-((5R,7R)-7-hydroxy-5-methyl-6,7-dihydro-5H-cyclopenta[d]pyrimidin-4-yl)piperazin-1-yl)-3-(isopropylamino)propan-1-one], the solubility in data set [4] (water) is given as over 1 g/g; in data set [4] (water/ethanol 1:1), over 2 g/g. The hygroscopicity in data set [5] (at 50% RH) was about 6%; in data set [5] (at 95% RH), over 35%.
